# Data: ChEMBL document CHEMBL1201862, “PubChem BioAssay data set” (2004)
#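 Results reflect a 48-hour exposure of cells in 96-well plates to compound at five concentrations. GI50: concentration for 50% inhibition of growth.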 Calls of active or inactive are those of the source. No stated cut-off is given here; in the data, active = GI50 up to about 1.1 µM and inactive = higher.
# Experiments:
# Assay in all cases: NCI-60 cell line screen, 48 h
# BT-549 = system: BT-549
# OVCAR-8 = system: OVCAR-8
# NCI-H460 = system: NCI-H460
# SNB-19 = system: SNB-19
# ACHN = system: ACHN
# UACC-257 = system: UACC-257
# TK-10 = system: TK-10
# MCF7 = system: MCF7
# EKVX = system: EKVX
# SK-MEL-28 = system: SK-MEL-28
# SF-539 = system: SF-539
# UACC-62 = system: UACC-62
# LOX IMVI = system: LOX IMVI
# SF-268 = system: SF-268
# NCI-H226 = system: NCI-H226
# HOP-62 = system: HOP-62
# COLO 205 = system: COLO 205
# HCC 2998 = system: HCC 2998
# KM12 = system: KM12
# DU-145 = system: DU-145
# HL-60 = system: HL-60
# Hs-578T = system: Hs-578T
# T47D = system: T47D
# A549 = system: A549
# MDA-MB-435 = system: MDA-MB-435
# RXF 393 = system: RXF 393
# SN12C = system: SN12C
# A498 = system: A498
# M14 = system: M14
# 786-0 = system: 786-0
# NCI/ADR-RES = system: NCI/ADR-RES
# PC-3 = system: PC-3
# K562 = system: K562
# HT-29 = system: HT-29
# MOLT-4 = system: MOLT-4
# OVCAR-3 = system: OVCAR-3
# OVCAR-4 = system: OVCAR-4
# NCI-H522 = system: NCI-H522
# CCRF-CEM = system: CCRF-CEM
# MDA-MB-231 = system: MDA-MB-231
# HCT-15 = system: HCT-15
# HCT-116 = system: HCT-116
# Malme-3M = system: Malme-3M
# NCI-H23 = system: NCI-H23
# SK-MEL-2 = system: SK-MEL-2
# HOP-92 = system: HOP-92
# OVCAR-5 = system: OVCAR-5
# SNB-75 = system: SNB-75
# U-251 = system: U-251
# UO-31 = system: UO-31
# RPMI-8226 = system: RPMI-8226
# IGROV-1 = system: IGROV-1
# SK-OV-3 = system: SK-OV-3
# SR = system: SR
# SW-620 = system: SW-620
# SF-295 = system: SF-295
# MDA-N = system: MDA-N
# SK-MEL-5 = system: SK-MEL-5
# CAKI-1 = system: CAKI-1
smiles,measurement,setting,value
CN(NC(=O)CCCl)C1=NCCN1,GI50,BT-549,> 100 µM (inactive)
same,GI50,OVCAR-8,> 100 µM (inactive)
same,GI50,NCI-H460,> 100 µM (inactive)
same,GI50,SNB-19,> 100 µM (inactive)
same,GI50,ACHN,> 100 µM (inactive)
same,GI50,UACC-257,> 100 µM (inactive)
same,GI50,TK-10,> 100 µM (inactive)
same,GI50,MCF7,> 100 µM (inactive)
same,GI50,EKVX,> 100 µM (inactive)
same,GI50,SK-MEL-28,> 100 µM (inactive)
same,GI50,SF-539,> 100 µM (inactive)
same,GI50,UACC-62,> 100 µM (inactive)
same,GI50,LOX IMVI,> 100 µM (inactive)
same,GI50,SF-268,> 100 µM (inactive)
same,GI50,NCI-H226,> 100 µM (inactive)
same,GI50,HOP-62,> 100 µM (inactive)
same,GI50,COLO 205,> 100 µM (inactive)
same,GI50,HCC 2998,> 100 µM (inactive)
same,GI50,KM12,> 100 µM (inactive)
same,GI50,DU-145,> 100 µM (inactive)
same,GI50,HL-60,> 100 µM (inactive)
same,GI50,Hs-578T,> 100 µM (inactive)
same,GI50,T47D,> 100 µM (inactive)
same,GI50,A549,> 100 µM (inactive)
same,GI50,MDA-MB-435,> 100 µM (inactive)
same,GI50,RXF 393,> 100 µM (inactive)
same,GI50,SN12C,> 100 µM (inactive)
same,GI50,A498,> 100 µM (inactive)
same,GI50,M14,> 100 µM (inactive)
same,GI50,786-0,> 100 µM (inactive)
same,GI50,NCI/ADR-RES,> 100 µM (inactive)
same,GI50,PC-3,> 100 µM (inactive)
same,GI50,K562,> 100 µM (inactive)
same,GI50,HT-29,> 100 µM (inactive)
same,GI50,MOLT-4,> 100 µM (inactive)
same,GI50,OVCAR-3,> 100 µM (inactive)
same,GI50,OVCAR-4,> 100 µM (inactive)
same,GI50,NCI-H522,> 100 µM (inactive)
same,GI50,CCRF-CEM,> 100 µM (inactive)
same,GI50,MDA-MB-231,> 100 µM (inactive)
same,GI50,HCT-15,> 100 µM
same,GI50,HCT-116,> 100 µM (inactive)
same,GI50,Malme-3M,> 100 µM (inactive)
same,GI50,NCI-H23,> 100 µM (inactive)
same,GI50,SK-MEL-2,> 100 µM (inactive)
same,GI50,HOP-92,> 100 µM (inactive)
same,GI50,OVCAR-5,> 100 µM (inactive)
same,GI50,SNB-75,> 100 µM (inactive)
same,GI50,U-251,> 100 µM (inactive)
same,GI50,UO-31,> 100 µM (inactive)
same,GI50,RPMI-8226,> 100 µM (inactive)
same,GI50,IGROV-1,> 100 µM (inactive)
same,GI50,SK-OV-3,> 100 µM (inactive)
same,GI50,SR,> 100 µM (inactive)
same,GI50,SW-620,> 100 µM (inactive)
same,GI50,SF-295,> 100 µM (inactive)
same,GI50,MDA-N,> 100 µM (inactive)
same,GI50,SK-MEL-5,> 100 µM (inactive)
O=C(NC1=C(Cl)C(=O)c2ccccc2C1=O)C(=O)c1c(O)c2ccccc2oc1=O,GI50,BT-549,3.06 µM (inactive)
same,GI50,OVCAR-8,3.44 µM (inactive)
same,GI50,CAKI-1,9.66 µM (inactive)
same,GI50,NCI-H460,2.54 µM (inactive)
same,GI50,SNB-19,4.6 µM (inactive)
same,GI50,ACHN,3.4 µM (inactive)
same,GI50,UACC-257,1.51 µM (inactive)
same,GI50,TK-10,17.5 µM (inactive)
same,GI50,MCF7,1.62 µM (inactive)
same,GI50,EKVX,9.42 µM (inactive)
same,GI50,SK-MEL-28,2.39 µM (inactive)
same,GI50,SF-539,2.8 µM (inactive)
same,GI50,UACC-62,2.3 µM (inactive)
same,GI50,LOX IMVI,2 µM (inactive)
same,GI50,SF-268,5.62 µM (inactive)
same,GI50,NCI-H226,9.18 µM (inactive)
same,GI50,HOP-62,5.46 µM (inactive)
same,GI50,COLO 205,5.87 µM (inactive)
same,GI50,HCC 2998,8.11 µM (inactive)
same,GI50,KM12,4.55 µM (inactive)
same,GI50,DU-145,1.49 µM (inactive)
same,GI50,HL-60,3.21 µM (inactive)
same,GI50,Hs-578T,5.2 µM (inactive)
same,GI50,T47D,4.83 µM (inactive)
same,GI50,A549,2.33 µM (inactive)
same,GI50,MDA-MB-435,1.39 µM (inactive)
same,GI50,RXF 393,5.62 µM (inactive)
same,GI50,SN12C,3.7 µM (inactive)
same,GI50,A498,14.7 µM (inactive)
same,GI50,M14,1.83 µM (inactive)
same,GI50,786-0,6.24 µM (inactive)
same,GI50,NCI/ADR-RES,3.13 µM (inactive)
same,GI50,PC-3,2.88 µM (inactive)
same,GI50,K562,5.15 µM (inactive)
same,GI50,HT-29,3.07 µM (inactive)
same,GI50,MOLT-4,4.65 µM (inactive)
same,GI50,OVCAR-3,1.16 µM (inactive)
same,GI50,OVCAR-4,7.4 µM (inactive)
same,GI50,NCI-H522,3.69 µM (inactive)
same,GI50,CCRF-CEM,5.94 µM (inactive)
same,GI50,MDA-MB-231,3.48 µM (inactive)
same,GI50,HCT-15,3.18 µM
same,GI50,HCT-116,2.56 µM (inactive)
same,GI50,Malme-3M,1.07 µM (active)
same,GI50,NCI-H23,1.53 µM (inactive)
same,GI50,SK-MEL-2,2.32 µM (inactive)
same,GI50,HOP-92,12.4 µM (inactive)
same,GI50,OVCAR-5,11.5 µM (inactive)
same,GI50,SNB-75,5.14 µM (inactive)
same,GI50,U-251,5.74 µM (inactive)
same,GI50,UO-31,7.66 µM (inactive)
same,GI50,RPMI-8226,6.19 µM (inactive)
same,GI50,IGROV-1,3.27 µM (inactive)
same,GI50,SK-OV-3,12.6 µM (inactive)
same,GI50,SR,3.04 µM (inactive)
same,GI50,SW-620,5.22 µM (inactive)
same,GI50,SF-295,2.46 µM (inactive)
same,GI50,MDA-N,1.37 µM (inactive)
same,GI50,SK-MEL-5,0.368 µM (active)
